Data published in patent publication US9302999B2, “Substituted triazoles as herbicides” (E. I. DU PONT DE NEMOURS AND COMPANY, priority 2012, dated 2016).

Tests used:
Type in all cases: in vivo
[1] = system: bromegrass, downy (downy bromegrass, Bromus tectorum); assay: Test C pre-/postemergence: bromegrass, downy
Method in brief: (§1)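 Visual injury scored 0–100 (100 = complete control) against untreated controls after 13–15 greenhouse days. Surfactant-containing solvent formulations applied either to soil after sowing (loam/sand) or over 1- to 4-leaf plants, 2–18 cm tall.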

[2] = system: foxtail, green (green foxtail, Setaria viridis); assay: Test C pre-/postemergence: foxtail, green
Method in brief: as §1

[3] = system: surinam grass (Brachiaria decumbens); assay: Test C pre-/postemergence: surinam grass
Method in brief: as §1

[4] = system: cocklebur (common cocklebur, Xanthium strumarium); assay: Test C pre-/postemergence: cocklebur
Method in brief: as §1

[5] = system: goosegrass (Eleusine indica); assay: Test C pre-/postemergence: goosegrass
Method in brief: as §1

[6] = system: nightshade (eastern black nightshade, Solanum ptycanthum); assay: Test C pre-/postemergence: nightshade; conditions: Preemergence
Method in brief: as §1

[7] = system: barley (winter barley, Hordeum vulgare); assay: Test C postemergence: barley
Method in brief: (§2)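 Visual ratings of 0 (no effect) to 100 (complete control) were made against controls 13-15 days after a postemergence spray, with plants kept in a greenhouse. Plants were 2-18 cm tall (1- to 4-leaf stage) in Redi-Earth peat/vermiculite medium at treatment.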

[8] = system: canarygrass (Phalaris minor); assay: Test C postemergence: canarygrass
Method in brief: as §2

[9] = system: windgrass (Apera spica-venti); assay: Test C postemergence: windgrass
Method in brief: as §2

[10] = system: deadnettle (henbit deadnettle, Lamium amplexicaule); assay: Test C postemergence: deadnettle
Method in brief: as §2

[11] = Postemergence, 31 g ai/ha, scale 0 to 100 (0 no effect, 100 complete control)
[12] = Postemergence, 62 g ai/ha, scale 0 to 100 (0 no effect, 100 complete control)
[13] = Postemergence, 125 g ai/ha, scale 0 to 100, 0 no effect, 100 complete control
[14] = Postemergence, 250 g ai/ha, scale 0 to 100
[15] = Preemergence, 31 g ai/ha, scale of 0 to 100, 0 is no effect, 100 is complete control
[16] = Preemergence, 62 g ai/ha, scale 0 to 100, 0 no effect, 100 complete control
[17] = Preemergence, 125 g ai/ha, scale 0 to 100, 0 no effect, 100 complete control
[18] = Preemergence, 250 g ai/ha, scale 0 to 100, 0 no effect, 100 complete control
[19] = Preemergence, 62 g ai/ha, scale of 0 to 100, 0 is no effect, 100 is complete control
[20] = 125 g ai/ha, scale 0 to 100, 0 no effect, 100 complete control
[21] = 31 g ai/ha, scale 0 to 100 (0 no effect, 100 complete control)
[22] = 62 g ai/ha, scale 0 to 100 (0 no effect, 100 complete control)

## FC(F)Oc1nn(-c2ccc(C(F)(F)F)cc2)nc1Cc1ccnc(C(F)(F)F)c1 [Compound 26]
[1]; [11]
  Plant response rating, Bromegrass, Downy: 15
[1]; [12]
  Plant response rating, Bromegrass, Downy: 30
[1]; [13]
  Plant response rating, Bromegrass, Downy: 40
[1]; [14]
  Plant response rating, Bromegrass, Downy: 50
[1]; [15]
  Plant response rating, Bromegrass, Downy: 5
[1]; [16]
  Plant response rating, Bromegrass, Downy: 45
[1]; [17]
  Plant response rating, Bromegrass, Downy: 50
[1]; [18]
  Plant response rating, Bromegrass, Downy: 85
[2]; [11]
  Plant response rating, Foxtail, Green: 30
[2]; [12]
  Plant response rating, Foxtail, Green: 40
[2]; [13]
  Plant response rating, Foxtail, Green: 70
[2]; [14]
  Plant response rating, Foxtail, Green: 85
[2]; [15]
  Plant response rating, Foxtail, Green: 85
[2]; [19]
  Plant response rating, Foxtail, Green: 95
[2]; [17]
  Plant response rating, Foxtail, Green: 95
[2]; [18]
  Plant response rating, Foxtail, Green: 95
[3]; [11]
  Plant response rating, Surinam Grass: 15
[3]; [12]
  Plant response rating, Surinam Grass: 20
[3]; [13]
  Plant response rating, Surinam Grass: 25
[3]; [14]
  Plant response rating, Surinam Grass: 45
[3]; [15]
  Plant response rating, Surinam Grass: 10
[3]; [19]
  Plant response rating, Surinam Grass: 50
[3]; [17]
  Plant response rating, Surinam Grass: 65
[3]; [18]
  Plant response rating, Surinam Grass: 90
[4]; [11]
  Plant response rating, Cocklebur: 10
[4]; [12]
  Plant response rating, Cocklebur: 15
[4]; [13]
  Plant response rating, Cocklebur: 55
[4]; [14]
  Plant response rating, Cocklebur: 65
[4]; [15]
  Plant response rating, Cocklebur: 0
[4]; [16]
  Plant response rating, Cocklebur: 5
[4]; [17]
  Plant response rating, Cocklebur: 15
[4]; [18]
  Plant response rating, Cocklebur: 55
[5]; [11]
  Plant response rating, Goosegrass: 25
[5]; [12]
  Plant response rating, Goosegrass: 30
[5]; [13]
  Plant response rating, Goosegrass: 40
[5]; [14]
  Plant response rating, Goosegrass: 70
[5]; [15]
  Plant response rating, Goosegrass: 95
[5]; [19]
  Plant response rating, Goosegrass: 100
[5]; [17]
  Plant response rating, Goosegrass: 100
[5]; [18]
  Plant response rating, Goosegrass: 100
[6]; 31 g ai/ha, scale of 0 to 100, 0 is no effect, 100 is complete control
  Plant response rating, Nightshade: 55
[6]; 62 g ai/ha, scale of 0 to 100, 0 is no effect, 100 is complete control
  Plant response rating, Nightshade: 90
[6]; [20]
  Plant response rating, Nightshade: 98
[6]; 250 g ai/ha, scale 0 to 100, 0 no effect, 100 complete control
  Plant response rating, Nightshade: 98
[7]; [21]
  Plant response rating, Barley: 20
[7]; [22]
  Plant response rating, Barley: 30
[7]; [20]
  Plant response rating, Barley: 30
[7]; 250 g ai/ha, scale 0 to 100
  Plant response rating, Barley: 40
[8]; [21]
  Plant response rating, Canarygrass: 40
[8]; [22]
  Plant response rating, Canarygrass: 45
[8]; [20]
  Plant response rating, Canarygrass: 90
[8]; 250 g ai/ha, scale 0 to 100
  Plant response rating, Canarygrass: 90
[9]; [21]
  Plant response rating, Windgrass: 40
[9]; [22]
  Plant response rating, Windgrass: 55
[9]; [20]
  Plant response rating, Windgrass: 80
[9]; 250 g ai/ha, scale 0 to 100
  Plant response rating, Windgrass: 80
[10]; [21]
  Plant response rating, Deadnettle: 98
[10]; [22]
  Plant response rating, Deadnettle: 98
[10]; [20]
  Plant response rating, Deadnettle: 98
[10]; 250 g ai/ha, scale 0 to 100
  Plant response rating, Deadnettle: 100
